Drawing on patent publication US12540141B2, “Spiropyrrolidine derived antiviral agents” (priority 2020, dated 2026), this text covers IC50 and EC50 for 49 molecules.

Structures are written as SMILES. Where only a bound is given, the exact number is not on record here.

The target of one test is SARS-CoV-2 3CL-protease (Severe acute respiratory syndrome coronavirus 2, UniProt P0DTD1). Nature of the test: SARS-CoV-2 3C-Like (3CL) Protease Fluorescence Assay (FRET). The test is classed as biochemical. The following applies: SARS-CoV-2 3CL-protease 10 nM, 30 min preincubation at RT, substrate 40 μM.
In general, IC50 refers to the concentration that gives 50% inhibition. A high value points to a need for much substance. In turn, `CC(C)C[C@@H](C(=O)N1C[C@]2(C[C@H]1C#N)C(=O)Nc1ccc(-n3cc(C4CC4)nn3)cc12)N(C)C(=O)c1cc2c(F)cc(F)cc2[nH]1` [Example 505, N—((S)-1-((3R,5′S)-5′-cyano-5-(4-cyclopropyl-1H-1,2,3-triazol-1-yl)-2-oxospiro[indoline-3,3′-pyrrolidin]-1′-yl)-4-methyl-1-oxopentan-2-yl)-4,6-difluoro-N-methyl-1H-indole-2-carboxamide] gave an IC50 of less than 100 nM.
With `CC(C)C[C@@H](C(=O)N1C[C@]2(C[C@H]1C#N)C(=O)Nc1ccccc12)N(C)C(=O)c1cc(F)c2nc(C3CC3)cn2c1` [Example 318], the IC50 was less than 100 nM.
The molecule `CN(C)CCC(=O)N(C)[C@@H](CC(C)(C)F)C(=O)N1C[C@]2(C[C@H]1C#N)C(=O)Nc1ccccc12` [Example 539, N—((S)-1-((3R,5′S)-5′-cyano-2-oxospiro[indoline-3,3′-pyrrolidin]-1′-yl)-4-fluoro-4-methyl-1-oxopentan-2-yl)-3-(dimethylamino)-N-methylpropanamide] came in with an IC50 of less than 100 nM.
With `CC(C)C[C@@H](C(=O)N1C[C@]2(C[C@H]1C#N)C(=O)Nc1ccccc12)N(C)C(=O)c1cc2ccccn2n1` [Example 247], the IC50 was in the range of 100 to 1000 nM.
For the molecule `COc1ccc(Cl)cc1C(=O)N(C)[C@@H](CC(C)C)C(=O)N1C[C@]2(C[C@H]1C#N)C(=O)Nc1ccccc12` [Example 170], the IC50 is less than 100 nM.
Take `[2H]C([2H])([2H])N(C(=O)[C@H](O)c1ccccc1)[C@@H](CC(C)(C)C)C(=O)N1C[C@]2(C[C@H]1C#N)C(=O)Nc1ccccc12` [Example 428]: the IC50 is less than 100 nM.
Take `[2H]C([2H])([2H])N(C(=O)c1cn(C2CCC2)nn1)[C@@H](CC(C)(C)C)C(=O)N1C[C@]2(C[C@H]1C#N)C(=O)Nc1ccccc12` [Example 379]: the IC50 was less than 100 nM.
The molecule `CC(C)C[C@@H](C(=O)N1C[C@]2(C[C@H]1C#N)C(=O)Nc1ccccc12)N(C)C(=O)c1cc2cc(C(F)(F)F)ccc2[nH]1` [Example 326] gave an IC50 of less than 100 nM.
The same measure, in the same setting: the same measure for `CC(C)C[C@@H](C(=O)N1C[C@]2(C[C@H]1C#N)C(=O)Nc1ccccc12)N(C)C(=O)c1cccc(OC(F)(F)F)c1` [Example 189]: 100 to 1000 nM; for `CC(C)C[C@@H](C(=O)N1C[C@]2(C[C@H]1C#N)C(=O)Nc1ccccc12)N(C)C(=O)c1cc(OC2CC2)c2ncccc2c1` [Example 312]: less than 100 nM.
As for `CC(C)(C)C[C@H](NC(=O)c1cn(CC(F)(F)F)nn1)C(=O)N1C[C@]2(C[C@H]1C#N)C(=O)Nc1ccccc12` [Example 143], the IC50 was less than 100 nM.
As to `[2H]C([2H])([2H])N(C(=O)c1nc(-c2ccccc2)c[nH]1)[C@@H](CC(C)(C)C)C(=O)N1C[C@]2(C[C@H]1C#N)C(=O)Nc1ccccc12` [Example 376], the IC50 is less than 100 nM.
Molecule `N#C[C@@H]1C[C@@]2(CN1C(=O)[C@H](CC1CC1)NC(=O)c1cccc(OC(F)(F)F)c1)C(=O)Nc1ccc(Cl)cc12` [Example 520] came in with an IC50 of less than 100 nM.
Molecule `CC(C)C[C@@H](C(=O)N1C[C@]2(C[C@H]1C#N)C(=O)Nc1ccccc12)N(C)C(=O)c1cc(Cl)c2[nH]c(C3CC3)nc2c1` [Example 256] displayed an IC50 of less than 100 nM.
Same read-out and setting: the result for `COc1cc(C(=O)N(C)[C@@H](CC(C)C)C(=O)N2C[C@]3(C[C@H]2C#N)C(=O)Nc2ccccc23)cc2cn(C3CCC3)nc12` [Example 320] reads less than 100 nM.
On the same count and under the same terms, the result for `CC(C)C[C@@H](C(=O)N1C[C@]2(C[C@H]1C#N)C(=O)Nc1ccccc12)N(C)C(=O)c1ccc(F)cn1` [Example 198] reads 100 to 1000 nM; that for `CC(C)C[C@@H](C(=O)N1C[C@]2(C[C@H]1C#N)C(=O)Nc1ccccc12)N(C)C(=O)c1cccc(F)c1Cl` [Example 164], less than 100 nM.
As to `CN(C(=O)c1cn(-c2ccc(F)cc2)nn1)[C@@H](Cc1ccccc1)C(=O)N1C[C@]2(C[C@H]1C#N)C(=O)Nc1ccccc12` [Example 357], the IC50 is less than 100 nM.
The molecule `CC(C)C[C@@H](C(=O)N1C[C@]2(C[C@H]1C#N)C(=O)Nc1ccccc12)N(C)C(=O)c1ccc(C#N)c(Cl)c1` [Example 165] returned an IC50 of 100 to 1000 nM.
In the case of `CC(C)C[C@@H](C(=O)N1C[C@]2(C[C@H]1C#N)C(=O)Nc1ccccc12)N(C)C(=O)c1cc2ccc(C(F)(F)F)cc2[nH]1` [Example 331], the IC50 is less than 100 nM.
On the same count and under the same terms, the same measure for `Cc1cc2cc(C(=O)N[C@@H](CC(C)(C)C)C(=O)N3C[C@]4(C[C@H]3C#N)C(=O)Nc3ccccc34)cc(Cl)c2nc1C` [Example 147]: less than 100 nM; for `CC(C)C[C@@H](C(=O)N1C[C@]2(C[C@H]1C#N)C(=O)Nc1ccccc12)N(C)C(=O)c1cc(Cl)c2ncc(C(F)(F)F)cc2c1` [Example 240]: less than 100 nM.
On to `CC(C)C[C@@H](C(=O)N1C[C@]2(C[C@H]1C#N)C(=O)Nc1ccccc12)N(C)C(=O)c1cccc(OC(F)F)c1` [Example 188], for which the IC50 is less than 100 nM.
The same measure, in the same setting: the result for `CC(C)C[C@@H](C(=O)N1C[C@]2(C[C@H]1C#N)C(=O)Nc1ccccc12)N(C)C(=O)c1cnn(C(C)(C)C)c1` [Example 352] reads less than 100 nM; that for `CN(C(=O)c1cc2c(F)cc(F)c(F)c2[nH]1)[C@@H](CCC(C)(C)C)C(=O)N1C[C@]2(C[C@H]1C#N)C(=O)Nc1ccccc12` [Example 412], less than 100 nM; that for `Cc1c(C(=O)N[C@@H](CC2CC2)C(=O)N2C[C@]3(C[C@H]2C#N)C(=O)Nc2ccc(F)cc23)sc2cccc(F)c12` [Example 521], less than 100 nM.
Still for that read-out and setting: the same measure for `CC(C)C[C@@H](C(=O)N1C[C@]2(C[C@H]1C(=O)CO)C(=O)Nc1ccccc12)N(C)C(=O)c1cc2c(F)cc(F)c(F)c2[nH]1` [Example 158]: greater than 1000 nM.
The same measure, in the same setting: the same measure for `CC(C)C[C@H](NC(=O)c1cc2c(F)cccc2[nH]1)C(=O)N1C[C@]2(C[C@H]1C#N)C(=O)Nc1cc(Cl)ccc12` [Example 531]: less than 100 nM; for `CC(C)C[C@@H](C(=O)N1C[C@]2(C[C@H]1C#N)C(=O)Nc1ccccc12)N(C)C(=O)c1ccc(OC2CC2)c(-c2cccnc2)c1` [Example 343]: less than 100 nM; for `CC(C)C[C@@H](C(=O)N1C[C@]2(C[C@H]1C#N)C(=O)Nc1ccc(-c3ccccn3)cc12)N(C)C(=O)c1cc2c(F)cc(F)cc2[nH]1` [Example 516]: less than 100 nM.
Molecule `CN(C(=O)c1cc2cccnc2[nH]1)[C@@H](CC1CC1)C(=O)N1C[C@]2(C[C@H]1C#N)C(=O)Nc1ccc(Cl)cc12` [Example 459] gave a half-maximal inhibitory concentration (IC50) of less than 100 nM.
Same read-out and setting: the same measure for `CC(C)(C)C[C@H](NC(=O)c1cn(-c2cccc(Cl)c2)nn1)C(=O)N1C[C@]2(C[C@H]1C#N)C(=O)Nc1ccccc12` [Example 142]: 100 to 1000 nM; for `CC(C)C[C@@H](C(=O)N1C[C@]2(C[C@H]1C#N)C(=O)Nc1ccccc12)N(C)C(=O)c1ccc2nc(-c3ccccc3)ccc2c1` [Example 257]: 100 to 1000 nM; for `CC(C)C[C@@H](C(=O)N1C[C@]2(C[C@H]1C#N)C(=O)Nc1ccccc12)N(C)C(=O)c1cc2cccc(C(F)(F)F)c2[nH]1` [Example 336]: less than 100 nM.
For the molecule `CC(C)C[C@@H](C(=O)N1C[C@]2(C[C@H]1C#N)C(=O)Nc1ccccc12)N(C)C(=O)c1cncc(F)c1` [Example 196], the 50% inhibitory concentration (IC50) is less than 100 nM.
For the molecule `CC(C)C[C@@H](C(=O)N1C[C@]2(C[C@H]1C#N)C(=O)Nc1ccccc12)N(C)C(=O)c1nc2c(F)c(F)c(F)cc2[nH]1` [Example 273], the IC50 was 100 to 1000 nM.
In the case of `CN(C(=O)c1cnn(-c2ccc(C(F)(F)F)cc2)c1)[C@@H](CC1CC1)C(=O)N1C[C@]2(C[C@H]1C#N)C(=O)Nc1ccccc12` [Example 406], the IC50 was less than 100 nM.
Same read-out and setting: the same measure for `CC(C)C[C@@H](C(=O)N1C[C@]2(C[C@H]1C#N)C(=O)Nc1ccccc12)N(C)C(=O)c1nnn(C(C)(C)C)n1` [Example 356]: less than 100 nM; for `CC(C)C[C@@H](C(=O)N1C[C@]2(C[C@H]1C#N)C(=O)Nc1ccc(N=[N+]=[N-])cc12)N(C)C(=O)c1cc2c(F)cc(F)cc2[nH]1` [Example 503, N—((S)-1-((3R,5′S)-5-azido-5′-cyano-2-oxospiro[indoline-3,3′-pyrrolidin]-1′-yl)-4-methyl-1-oxopentan-2-yl)-4,6-difluoro-N-methyl-1H-indole-2-carboxamide]: less than 100 nM; for `N#C[C@@H]1C[C@@]2(CN1C(=O)[C@H](CC1CC1)NC(=O)c1c(Cl)cccc1Cl)C(=O)Nc1ccc(Cl)cc12` [Example 525]: less than 100 nM.
Consider `CC(C)C[C@@H](C(=O)N1C[C@]2(C[C@H]1C#N)C(=O)Nc1ccccc12)N(C)C(=O)c1ccc(Cl)c(F)c1F` [Example 175], for which the IC50 was less than 100 nM.
The same measure, in the same setting: the result for `CC(C)C[C@@H](C(=O)N1C[C@]2(C[C@H]1C#N)C(=O)Nc1ccc(-c3ccncc3)cc12)N(C)C(=O)c1cc2c(F)cc(F)cc2[nH]1` [Example 510] reads less than 100 nM; that for `CC(C)C[C@@H](C(=O)N1C[C@]2(C[C@H]1C#N)C(=O)Nc1ccccc12)N(C)C(=O)c1ccccc1-c1ccccc1` [Example 261], 100 to 1000 nM; that for `CC(C)C[C@@H](C(=O)N1C[C@]2(C[C@H]1C#N)C(=O)Nc1ccccc12)N(C)C(=O)c1cn(C2CCC2)nn1` [Example 365], less than 100 nM.
In turn, `CC(C)C[C@@H](C(=O)N1C[C@]2(C[C@H]1C#N)C(=O)Nc1ccccc12)N(C)C(=O)COc1ccccc1` [Example 229] displayed an IC50 of less than 100 nM.
The molecule `CN(C(=O)c1cc2c(F)cc(F)cc2[nH]1)[C@@H](CC(C)(C)F)C(=O)N1C[C@]2(C[C@H]1C#N)C(=O)Nc1ccc(Cl)cc12` [Example 455] registered an IC50 of less than 100 nM.
In turn, `CC(C)C[C@@H](C(=O)N1C[C@]2(C[C@H]1C#N)C(=O)Nc1ccccc12)N(C)C(=O)C[C@H](Cc1cc(F)c(F)cc1F)NC(=O)OC(C)(C)C` [Example 291] gave an IC50 of less than 100 nM.

Another test has as its system 229E human corona virus (hCoV). The test is described as follows: 229E Live Virus Assay (MRC-5 cells, CPE read by ATPlite). Type of test: cell-based, hCoV-229E.
Settings: not given
As a reminder, the EC50 is the concentration giving half of the maximal effect. A low value points to a more potent agent. As for `C[C@H](OC(=O)N[C@@H](CC(C)(C)C)C(=O)N1C[C@]2(C[C@H]1C#N)C(=O)Nc1ccc(Cl)cc12)c1ccc(F)cc1` [Example 494], the EC50 fell in the range of 100 to 1000 nM.

Still in this test, the particulars now being: hCoV-229E live virus in MRC-5 cells, MOI 0.05, CPE by ATPlite; run in duplicate.
`COc1cc(C(=O)N(C)[C@@H](CC(C)C)C(=O)N2C[C@]3(C[C@H]2C#N)C(=O)Nc2ccccc23)cn2cc(C(F)F)nc12` [Example 255] had an EC50 of less than 100 nM.
